Data taken from ChEMBL document CHEMBL3044631, “Synthesis of 2-[4,5-dimethyl-1-(phenylamino)-1H-imidazol-2-ylthio]-N-(thiazole-2-yl)acetamide derivatives and their anticancer activities” (2013).

Columns and labels:
Type in all cases: functional
SF-295 = test: Anticancer activity against Homo sapiens (human) SF295 cells after 48 hr by SRB assay; details: SF-295, 48 h
SW-620 = test: Anticancer activity against Homo sapiens (human) SW620 cells after 48 hr by SRB assay; details: SW-620, 48 h
HCC 2998 = test: Anticancer activity against Homo sapiens (human) HCC2998 cells after 48 hr by SRB assay; details: HCC 2998, 48 h
NCI-H226 = test: Anticancer activity against Homo sapiens (human) NCI-H226 cells after 48 hr by SRB assay; details: NCI-H226, 48 h
HOP-92 = test: Anticancer activity against Homo sapiens (human) HOP92 cells after 48 hr by SRB assay; details: HOP-92, 48 h; for CC50: read-out: LC50 (the source's name)
SR = test: Anticancer activity against Homo sapiens (human) SR cells after 48 hr by SRB assay; details: for CC50: read-out: LC50 (the source's name)
MOLT-4 = test: Anticancer activity against Homo sapiens (human) MOLT4 cells after 48 hr by SRB assay; details: MOLT-4, 48 h
RPMI-8226 = test: Anticancer activity against Homo sapiens (human) RPMI8226 cells after 48 hr by SRB assay; details: RPMI-8226, 48 h; for CC50: read-out: LC50 (the source's name)
CCRF-CEM = test: Anticancer activity against Homo sapiens (human) CCRF-CEM cells after 48 hr by SRB assay
MCF7 = test: Anticancer activity against Homo sapiens (human) MCF7 cells after 48 hr by SRB assay; details: MCF7, 48 h; for CC50: read-out: LC50 (the source's name)
SK-MEL-28 = test: Anticancer activity against Homo sapiens (human) SK-MEL-28 cells after 48 hr by SRB assay; details: SK-MEL-28, 48 h
U-251 = test: Anticancer activity against Homo sapiens (human) U251 cells after 48 hr by SRB assay; details: U-251, 48 h
PC-3 = test: Anticancer activity against Homo sapiens (human) PC3 cells after 48 hr by SRB assay; details: PC-3, 48 h
RXF 393 = test: Anticancer activity against Homo sapiens (human) RXF393 cells after 48 hr by SRB assay; details: RXF 393, 48 h

## COc1ccc(Nn2c(SCC(=O)Nc3nc(-c4ccc(Cl)cc4)cs3)nc(C)c2C)cc1
SF-295
  GI50: 2.18 µM
  LC50: > 100 µM
  TGI: > 100 µM
SW-620
  GI50: 4.78 µM
  LC50 (concentration killing 50% of cells): > 100 µM
  TGI: > 100 µM
HCC 2998
  GI50: 3.07 µM
  LC50: > 100 µM
  TGI: 9.91 µM
NCI-H226
  GI50: 3.26 µM
  LC50: > 100 µM
  TGI: > 100 µM
HOP-92
  GI50: 2.42 µM
  TGI: 7.8 µM
  CC50: > 100 µM
SR
  GI50: 7.02 µM
  TGI: > 100 µM
  CC50: > 100 µM
MOLT-4
  GI50: 2.54 µM
  LC50 (50% lethal concentration): > 100 µM
  TGI: > 100 µM
RPMI-8226
  GI50: 5.8 µM
  TGI: > 100 µM
  CC50: > 100 µM
CCRF-CEM
  GI50: 3.82 µM
  LC50 (concentration killing 50% of cells): > 100 µM
  TGI: > 100 µM
MCF7
  GI50: 3.36 µM
  TGI: 25.5 µM
  CC50: > 100 µM
SK-MEL-28
  GI50: 18 µM
  LC50: > 100 µM
  TGI: > 100 µM
U-251
  GI50: 4.03 µM
  LC50 (lethal concentration, 50% net cell kill): > 100 µM
  TGI: > 100 µM
PC-3
  GI50: 2.65 µM
  LC50 (concentration killing 50% of cells): > 100 µM
  TGI: > 100 µM
RXF 393
  GI50: 3.53 µM
  LC50 (50% lethal concentration): > 100 µM
  TGI: 9.64 µM

## Cc1nc(SCC(=O)Nc2nc(-c3ccc(Cl)cc3)cs2)n(Nc2ccccc2)c1C
SF-295
  GI50: 2.29 µM
  LC50: > 100 µM
  TGI: 16.5 µM
SW-620
  GI50: 5.5 µM
  LC50 (concentration killing 50% of cells): 74.6 µM
  TGI: 22.9 µM
HCC 2998
  GI50: 10.6 µM
  LC50: 82.6 µM
  TGI: 29.5 µM
NCI-H226
  GI50: 3.37 µM
  LC50: 93.9 µM
  TGI: 18.8 µM
HOP-92
  GI50: 1.61 µM
  TGI: 6.89 µM
  CC50: 38.9 µM
SR
  GI50: 3.81 µM
  TGI: > 100 µM
  CC50: > 100 µM
MOLT-4
  GI50: 2.51 µM
  LC50 (50% lethal concentration): > 100 µM
  TGI: 9.94 µM
RPMI-8226
  GI50: 3.55 µM
  TGI: > 100 µM
  CC50: > 100 µM
CCRF-CEM
  GI50: 5.49 µM
  LC50 (concentration killing 50% of cells): > 100 µM
  TGI: > 100 µM
MCF7
  GI50: 2.94 µM
  TGI: 11.4 µM
  CC50: 52.2 µM
SK-MEL-28
  GI50: 10.1 µM
  LC50: 59.7 µM
  TGI: 24.6 µM
U-251
  GI50: 3.13 µM
  LC50 (lethal concentration, 50% net cell kill): 41.4 µM
  TGI: 13 µM
PC-3
  GI50: 2.34 µM
  LC50 (concentration killing 50% of cells): 38.4 µM
  TGI: 11 µM
RXF 393
  GI50: 2.97 µM
  LC50 (50% lethal concentration): 26.8 µM
  TGI: 7.33 µM

## Cc1ccc(Nn2c(SCC(=O)Nc3nc(-c4ccccc4)cs3)nc(C)c2C)cc1
SF-295
  GI50: 1.06 µM
  LC50: > 100 µM
  TGI: 5.89 µM
SW-620
  GI50: 8.03 µM
  LC50 (concentration killing 50% of cells): > 100 µM
  TGI: > 100 µM
MOLT-4
  GI50: 3.46 µM
  LC50 (50% lethal concentration): > 100 µM
  TGI: > 100 µM
U-251
  GI50: 4.5 µM
  LC50 (lethal concentration, 50% net cell kill): > 100 µM
  TGI: > 100 µM
